Reference: PMC6001238, “Iterative Chemical Engineering of Vancomycin Leads to Novel Vancomycin Analogs With a High in Vitro Therapeutic Index” (Frontiers in Microbiology, 2018)
In brackets after ≈: the same amount, converted by molar mass.

Key:
[1] = system: E. faecalis VSE 1; experiment: MIC, broth microdilution, vancomycin-sensitive E. faecalis (VSE 1); format: cell-based, Enterococcus faecalis; conditions: for MIC: Enterococcus faecalis VSE 1 (vancomycin-sensitive), read-out: MIC; for MIC-fold improvement vs. vancomycin: VSE 1, ratio of MIC of vancomycin and MIC of analogue
Method in brief: (§1)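 MIC values come from broth microdilution run to CLSI susceptibility-testing standards. Ultrapure water and uninoculated broth served as controls. In one series, vancomycin at a final 10 μM was co-dosed with the analogue or comparator antibiotic.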

[2] = system: E. faecalis VRE 6; experiment: MIC, broth microdilution, vancomycin-resistant E. faecalis VRE 6 (VanA); format: cell-based, Enterococcus faecalis; conditions: for MIC: Enterococcus faecalis VRE 6 (vancomycin-resistant), read-out: MIC; for MIC-fold improvement vs. vancomycin: VRE 6, ratio of MIC of vancomycin and MIC of analogue
Method in brief: as §1

[3] = system: E. faecalis VRE 53; experiment: MIC, broth microdilution, vancomycin-resistant E. faecalis VRE 53 (VanA); format: cell-based, Enterococcus faecalis; conditions: for MIC: Enterococcus faecalis VRE 53 (vancomycin-resistant), read-out: MIC; for MIC-fold improvement vs. vancomycin: VRE 53, ratio of MIC of vancomycin and MIC of analogue
Method in brief: as §1

[4] = system: E. faecalis VRE 29; experiment: MIC, broth microdilution, vancomycin-resistant E. faecalis VRE 29 (VanA); format: cell-based, Enterococcus faecalis; conditions: for MIC: Enterococcus faecalis VRE 29 (vancomycin-resistant), read-out: MIC; for MIC-fold improvement vs. vancomycin: VRE 29, ratio of MIC of vancomycin and MIC of analogue
Method in brief: as §1

[5] = system: E. faecalis VRE 37; experiment: MIC, broth microdilution, vancomycin-resistant E. faecalis VRE 37 (VanA); format: cell-based, Enterococcus faecalis; conditions: for MIC: Enterococcus faecalis VRE 37 (vancomycin-resistant), read-out: MIC
Method in brief: as §1

[6] = system: Murine leukemia (L1210) cells; experiment: Cytostatic activity, L1210 cell proliferation; format: cell-based; conditions: mean ± SD of three experiments; highest concentration tested 250 µM; 2 days; read-out: Toxicity (IC50) L1210
Method in brief: (§2)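 Test compounds, serially diluted, received an equal volume of cell suspension at 300,000–500,000 cells/mL. After 37°C incubation (2 days for L1210, 3 for CEM, 4 for HeLa), cells were enumerated by Coulter counting and 50%-inhibitory concentrations calculated per cell type.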

[7] = system: human T-lymphocyte (CEM) cells; experiment: Cytostatic activity, CEM cell proliferation; format: cell-based; conditions: mean ± SD of three experiments; highest concentration tested 250 µM; 3 days; read-out: Toxicity (IC50) CEM
Method in brief: as §2

[8] = system: human cervix carcinoma (HeLa) cells; experiment: Cytostatic activity, HeLa cell proliferation; format: cell-based; conditions: mean ± SD of three experiments; highest concentration tested 250 µM; 4 days; read-out: Toxicity (IC50) HeLa
Method in brief: as §2

[9] = system: L1210, CEM and HeLa cell lines; experiment: Cytostatic activity, average or summary over L1210, CEM and HeLa; format: cell-based; conditions: average of L1210, CEM and HeLa; read-out: Toxicity (IC50) Average
Method in brief: as §2

[10] = system: S. aureus VSSA (ATCC 6538); experiment: MIC, broth microdilution, vancomycin-sensitive S. aureus (VSSA/MSSA, ATCC 6538); format: cell-based, Staphylococcus aureus; conditions: for MIC: Staphylococcus aureus VSSA, read-out: MIC; for MIC-fold improvement vs. vancomycin: VSSA, ratio of MIC of vancomycin and MIC of analogue
Method in brief: as §1

[11] = system: S. aureus VISA/HIP5827; experiment: MIC, broth microdilution, vancomycin-intermediate S. aureus VISA HIP5827; format: cell-based, Staphylococcus aureus; conditions: for MIC: Staphylococcus aureus VISA/HIP5827, read-out: MIC; for MIC-fold improvement vs. vancomycin: VISA/HIP5827, ratio of MIC of vancomycin and MIC of analogue
Method in brief: as §1

[12] = system: S. aureus VRSA; experiment: MIC, broth microdilution, vancomycin-resistant S. aureus (VRSA); format: cell-based, Staphylococcus aureus; conditions: for MIC: Staphylococcus aureus VRSA, read-out: MIC; for MIC-fold improvement vs. vancomycin: VRSA, ratio of MIC of vancomycin and MIC of analogue
Method in brief: as §1

[13] = system: MRSA KS2; experiment: MIC, broth microdilution, MRSA KS2; format: cell-based, Staphylococcus aureus; conditions: for MIC-fold improvement vs. vancomycin: MRSA KS2, ratio of MIC of vancomycin and MIC of analogue; for MIC: Staphylococcus aureus MRSA KS2, read-out: MIC
Method in brief: as §1

[14] = system: MRSA KS6; experiment: MIC, broth microdilution, MRSA KS6; format: cell-based, Staphylococcus aureus; conditions: for MIC-fold improvement vs. vancomycin: MRSA KS6, ratio of MIC of vancomycin and MIC of analogue; for MIC: Staphylococcus aureus MRSA KS6, read-out: MIC
Method in brief: as §1

[15] = system: MRSA KS89; experiment: MIC, broth microdilution, MRSA KS89; format: cell-based, Staphylococcus aureus; conditions: for MIC-fold improvement vs. vancomycin: MRSA KS8, ratio of MIC of vancomycin and MIC of analogue; for MIC: Staphylococcus aureus MRSA KS8, read-out: MIC
Method in brief: as §1

[16] = system: MRSA KS1; experiment: MIC, broth microdilution, MRSA KS1; format: cell-based, Staphylococcus aureus; conditions: for MIC-fold improvement vs. vancomycin: MRSA KS1, ratio of MIC of vancomycin and MIC of analogue; for MIC: Staphylococcus aureus MRSA KS1, read-out: MIC
Method in brief: as §1

| SMILES | MIC [1] [µM] | MIC-fold improvement vs. vancomycin [1] | MIC [2] [µM] | MIC-fold improvement vs. vancomycin [2] | MIC [3] [µM] | MIC-fold improvement vs. vancomycin [3] | MIC [4] [µM] | MIC-fold improvement vs. vancomycin [4] | MIC [5] [µM] | IC50 [6] [µM] | IC50 [7] [µM] | IC50 [8] [µM] | IC50 [9] [µM] | MIC [10] [µM] | MIC-fold improvement vs. vancomycin [10] | MIC [11] [µM] | MIC-fold improvement vs. vancomycin [11] | MIC [12] [µM] | MIC-fold improvement vs. vancomycin [12] | MIC-fold improvement vs. vancomycin [13] | also measured |
| --- | --- | --- | --- | --- | --- | --- | --- | --- | --- | --- | --- | --- | --- | --- | --- | --- | --- | --- | --- | --- | --- |
| CN[C@H](CC(C)C)C(=O)N[C@H]1C(=O)N[C@@H](CC(N)=O)C(=O)N[C@H]2C(=O)N[C@H]3C(=O)N[C@H](C(=O)N[C@H](C(=O)NCCNC(=O)/C=C/c4ccc(NS(=O)(=O)c5ccc(Cl)cc5Cl)cc4)c4cc(O)cc(O)c4-c4cc3ccc4O)[C@H](O)c3ccc(c(Cl)c3)Oc3cc2cc(c3O[C@@H]2O[C@H](CO)[C@@H](O)[C@H](O)[C@H]2O[C@H]2C[C@](C)(N)[C@H](O)[C@H](C)O2)Oc2ccc(cc2Cl)[C@H]1O [Vanc-64] | 0.39 (≈ 0.72 µg/mL) | 4 | 3.13 (≈ 5.78 µg/mL) | 64 | 12.5 (≈ 23.1 µg/mL) | 32 | 6.25 (≈ 11.5 µg/mL) | 64 | 6.25 (≈ 11.5 µg/mL) | > 250 | 210 ± 56 | 102 ± 39 | 187 | 0.39 (≈ 0.72 µg/mL) | 2 | 0.78 (≈ 1.44 µg/mL) | 8 | 0.39 (≈ 0.72 µg/mL) | 256 | 4 | MIC-fold improvement vs. vancomycin ([5]; VRE 37, ratio of MIC of vancomycin and MIC of analogue): 64; MIC [13]: 0.20 µM (≈ 0.369 µg/mL); MIC-fold improvement vs. vancomycin [14]: 4; MIC [14]: 0.20 µM (≈ 0.369 µg/mL); MIC-fold improvement vs. vancomycin [15]: 2; MIC [15]: 0.39 µM (≈ 0.72 µg/mL); MIC-fold improvement vs. vancomycin [16]: 4; MIC [16]: 0.20 µM (≈ 0.369 µg/mL) |
| CNC(CC(C)C)C(=O)NC1C(=O)NC(CC(N)=O)C(=O)NC2C(=O)NC3C(=O)NC(C(=O)NC(C(=O)NCC(=O)Nc4ccc(C=Cc5ccc(N)cc5)cc4)c4cc(O)cc(O)c4-c4cc3ccc4O)C(O)c3ccc(c(Cl)c3)Oc3cc2cc(c3OC2OC(CO)C(O)C(O)C2OC2CC(C)(N)C(O)C(C)O2)Oc2ccc(cc2Cl)C1O (stereo not shown) [Vanc-58] | 0.78 (≈ 1.32 µg/mL) | 2 | 6.25 (≈ 10.6 µg/mL) | 32 | 25 (≈ 42.5 µg/mL) | 16 | 12.5 (≈ 21.2 µg/mL) | 32 | 12.5 (≈ 21.2 µg/mL) | > 250 | 197 ± 75 | 125 ± 57 | 191 | 0.78 (≈ 1.32 µg/mL) | 1 | 1.56 (≈ 2.65 µg/mL) | 4 | 0.78 (≈ 1.32 µg/mL) | 128 | 1 | MIC [13]: 0.78 µM (≈ 1.32 µg/mL); MIC-fold improvement vs. vancomycin [14]: 1; MIC [14]: 0.78 µM (≈ 1.32 µg/mL); MIC-fold improvement vs. vancomycin [15]: 1; MIC [15]: 0.78 µM (≈ 1.32 µg/mL); MIC-fold improvement vs. vancomycin [16]: 0.5; MIC [16]: 1.56 µM (≈ 2.65 µg/mL) |
